Measurements reported in patent publication US20130317068A1, “SUBSTITUTED 1,2,4-TRIAZOLE COMPOUNDS AS A SEED TREATMENT TO CONTROL PESTS” (Dow Agrosciences LLC, priority 2012, published 2013).

Tests used:
[1] = system: Aphis gossypii (cotton aphid); assay: Insecticidal activity on cotton aphid, solutions applied to cabbage leaf surface then infested; assay type: in vivo; details: for mortality at 50 ppm / mortality at 200 ppm: Aphis gossypii; for mortality at 200 ppm: Rate 200 PPM solution
Procedure: (§1) Different substituted 1,2,4-triazole compounds of the present disclosure were tested for insecticidal activity on Aphis gossypii (cotton aphid) and Myzus persicae (green peach aphid). The different substituted 1,2,4-triazole compounds were formulated as either 200 PPM solutions or 50 PPM solutions. The 200 PPM solutions or 50 PPM solutions of the different substituted 1,2,4-triazole compounds were applied to a cabbage leaf surface and the resulting samples were subjected to an infestation of Aphis gossypii and Myzus persicae.
(§2) In Table 1, “ND” means mortality data was not determined at this rate.

[2] = system: Myzus persicae (green peach aphid); assay: Insecticidal activity on green peach aphid, solutions applied to cabbage leaf surface then infested; assay type: in vivo; details: for mortality at 50 ppm: Rate 50 PPM solution; for mortality at 200 ppm: Rate 200 PPM solution
Procedure: as §1, §2

Compound Cn1nc(-c2c(F)cccc2F)nc1C1(C)CC1(Cl)Cl (stereo not drawn) [drawing 11] has a mortality at 50 ppm ([1]; Rate 50 PPM solution) of 90%, a mortality at 50 ppm [2] of 13% and a mortality at 200 ppm [2] of 81%.
In the case of Cn1nc(-c2c(F)cccc2F)nc1C1(C)CC1(Cl)Cl (stereo not drawn) [drawing 12], the “Average % mortality, Cotton Aphid” value ([1]; Rate 50 PPM solution) is reported as 95%.
For Cc1c(-c2nc(-c3c(F)cccc3Cl)nn2C)csc1-c1ccc(OC(F)(F)C(F)Cl)cc1 (stereo not drawn), the mortality at 50 ppm ([1]; Rate 50 PPM solution) was 84% and the mortality at 50 ppm [2] was 73%.
With Cn1nc(-c2c(Cl)cncc2Cl)nc1-c1ccc(C(F)(F)F)cc1 the mortality at 50 ppm ([1]; Rate 50 PPM solution) was 88%, the mortality at 50 ppm [2] was 79% and the mortality at 200 ppm [2] was 87%.
In the case of Cc1cc(-c2ccc(OC(F)(F)C(F)Cl)cc2)sc1-c1nc(-c2c(F)cccc2Cl)nn1C (stereo not drawn), the mortality at 50 ppm ([1]; Rate 50 PPM solution) is reported as 66% and the mortality at 50 ppm [2] is reported as 75%.
Cn1nc(-c2c(F)cccc2Cl)nc1-c1sc(Cl)c(Cl)c1Cl was tested, and the mortality at 50 ppm ([1]; Rate 50 PPM solution) was 32%, the mortality at 200 ppm [1] was 99% and the mortality at 50 ppm [2] was 81%.
Cc1c(Br)csc1-c1nc(-c2c(F)cccc2Cl)nn1C was tested, and the mortality at 50 ppm ([1]; Rate 50 PPM solution) was 96%, the mortality at 200 ppm [1] was 100% and the mortality at 50 ppm [2] was 87%. It also gave a mortality at 200 ppm [2] of 63%.
